Calls of active or inactive are those of the source. The calls are words filed in the database; no cut-off is given here.
Key:
[1] = Toxicity in BALB/c nude mouse xenografted with human SK-HEP1 cells assessed as pathological damage in heart at 10 mg/kg treated for 28 to 30 days by H and E staining based analysis; format: organism-based; conditions: in vivo, time 28-30 day
[2] = Toxicity in BALB/c nude mouse xenografted with human SK-HEP1 cells assessed as pathological damage in spleen at 10 mg/kg treated for 28 to 30 days in presence of sorafenib by H and E staining based analysis; format: organism-based; conditions: in vivo, time 28-30 day
SK-HEP1 [3] = assay: Downregulation of CCPG1 expression in human SK-HEP1 cells at 2.5 uM incubated for 36 hrs; format: functional, cell-based
[4] = target: T1, Protein cereblon/NAD-dependent protein deacylase sirtuin-6 (Homo sapiens, UniProt Q8N6T7+Q96SW2); assay: PROTAC activity at CRBN/SIRT6 in human U2OS cells expressing EJ5 assessed as inhibition of SNF2H loading onto chromatin incubated for 36 hrs by FACS analysis; format: cell-based
SK-HEP1 [5] = assay: Effect of H2BC21 mRNA expression in human SK-HEP1 cells at 2.5 uM incubated for 36 hrs by RNA sequencing analysis; format: functional, cell-based
[6] = Toxicity in BALB/c nude mouse xenografted with human SK-HEP1 cells assessed as histopathological abnormalities in heart at 10 mg/kg treated for 28 to 30 days by H and E staining based analysis; format: organism-based; conditions: in vivo, time 28-30 day
SK-HEP1 [7] = assay: Downregulation of CCPG1 expression in human SK-HEP1 cells at 2.5 uM incubated for 36 hrs in presence of MG132; format: functional, cell-based
SK-HEP1 [8] = assay: Inhibition of colony formation in human SK-HEP1 cells at 5 uM incubated for 10 to 14 days with replacement of medium containing compounds on every 3 days combined with irradiation (3 Gy) by crystal violet staining based analysis; format: functional, cell-based; conditions: time 10-14 day
[9] = target: T1, Protein cereblon/NAD-dependent protein deacylase sirtuin-6; assay: In vivo PROTAC activity of CRBN/SIRT6 in human SK-HEP1 cells xenografted in BALB/c nude mouse assessed as induction of SIRT6 degradation at 10 mg/kg treated for 28 to 30 days under irradiation (3 Gy); format: functional, organism-based; conditions: time 28-30 day
[10] = target: T1, Protein cereblon/NAD-dependent protein deacylase sirtuin-6; assay: PROTAC activity at CRBN/SIRT6 in human SK-HEP1 cells assessed as induction of SIRT6 degradation at 2 to 3 uM incubated for 36 hrs by Western blot analysis; format: cell-based; conditions: dose 2-3 µM
[11] = Toxicity in BALB/c nude mouse xenografted with human SK-HEP1 cells assessed as pathological damage in lungs at 10 mg/kg treated for 28 to 30 days in presence of sorafenib by H and E staining based analysis; format: organism-based; conditions: in vivo, time 28-30 day
[12] = Toxicity in BALB/c nude mouse xenografted with human SK-HEP1 cells assessed as pathological damage in spleen at 10 mg/kg treated for 28 to 30 days by H and E staining based analysis; format: organism-based; conditions: in vivo, time 28-30 day
[13] = Toxicity in BALB/c nude mouse xenografted with human SK-HEP1 cells assessed as histopathological abnormalities in spleen at 10 mg/kg treated for 28 to 30 days in presence of sorafenib by H and E staining based analysis; format: organism-based; conditions: in vivo, time 28-30 day
[14] = Toxicity in BALB/c nude mouse xenografted with human SK-HEP1 cells assessed as histopathological abnormalities in heart at 10 mg/kg treated for 28 to 30 days in presence of sorafenib by H and E staining based analysis; format: organism-based; conditions: in vivo, time 28-30 day

T1 sequence (Q8N6T7 2-355 limits assumed): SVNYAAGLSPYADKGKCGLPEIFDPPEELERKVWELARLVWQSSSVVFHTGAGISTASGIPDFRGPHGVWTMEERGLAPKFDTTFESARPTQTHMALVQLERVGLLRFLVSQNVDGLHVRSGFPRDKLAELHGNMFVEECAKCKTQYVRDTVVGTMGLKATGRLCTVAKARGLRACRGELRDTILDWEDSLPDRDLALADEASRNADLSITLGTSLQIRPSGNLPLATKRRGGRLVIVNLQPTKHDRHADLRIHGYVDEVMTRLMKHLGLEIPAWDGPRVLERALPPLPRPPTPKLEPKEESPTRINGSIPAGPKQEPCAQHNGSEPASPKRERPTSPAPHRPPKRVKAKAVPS
T1 sequence (Q96SW2 whole entry partner): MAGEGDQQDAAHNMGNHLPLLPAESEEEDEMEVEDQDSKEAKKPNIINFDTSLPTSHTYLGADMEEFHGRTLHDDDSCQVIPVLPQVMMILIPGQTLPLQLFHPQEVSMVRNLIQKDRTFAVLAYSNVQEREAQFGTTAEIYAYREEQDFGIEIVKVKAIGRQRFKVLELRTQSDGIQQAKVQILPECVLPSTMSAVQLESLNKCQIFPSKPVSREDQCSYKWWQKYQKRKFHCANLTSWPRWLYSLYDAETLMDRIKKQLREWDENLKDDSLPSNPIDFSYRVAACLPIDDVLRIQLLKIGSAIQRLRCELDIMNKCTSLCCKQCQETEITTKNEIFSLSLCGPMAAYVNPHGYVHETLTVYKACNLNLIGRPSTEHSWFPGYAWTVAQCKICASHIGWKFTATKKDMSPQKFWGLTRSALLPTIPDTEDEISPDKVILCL

Activity [9]: Active | Activity [10]: Active
Structure (SMILES): Nc1cc(N2CCN(CC3CCN(c4cc5c(cc4F)C(=O)N(C4CCC(=O)NC4=O)C5=O)CC3)CC2)ccc1[N+](=O)[O-] (centres undefined)
Activity [1]: Non-toxic | Activity [2]: Non-toxic | Activity (SK-HEP1 [3]): Active | inhibition [4]: Active; Results In Decrease In Hr And Nhej Efficiencies | Activity (SK-HEP1 [5]): Active | Activity [6]: Non-toxic | Activity (SK-HEP1 [7]): inactive | inhibition (SK-HEP1 [8]): Not active; Exhibited Weaker Inhibition | Activity [11]: Non-toxic | Activity [12]: Non-toxic | Activity [13]: Non-toxic | Activity [14]: Non-toxic

— ChEMBL document CHEMBL6120963, “Discovery of Novel PROTAC SIRT6 Degraders with Potent Efficacy against Hepatocellular Carcinoma” (J Med Chem, 2024)
